According to patent US11524021B2, “Use of ginsenoside M1 for manufacturing medicament for treating oral cancer” (priority 2018, dated 2022):

Assays:
Type in all cases: cell-based
[1] = system: human oral cancer SAS cells; assay: Migration of SAS cells, wound healing assay; details: 24 h
Method: FIGS. 5A-5B show ginsenoside M1 reduced the migration ability of human oral cancer cells. Human oral cancer cell line SAS cells (FIG. 5A) or OECM-1 cells (FIG. 5B) were cultured in 6-cm dish until the cells reached 100% confluence forming a monolayer. A clear zone was created by scratching using a sterile 200-μl pipette tip. The cells were incubated for 24 h (SAS cells) or 18 h (OECM-1 cells) with ginsenoside M1 (5˜10 μg/ml) or (0.1% DMSO). The migration distance was measured and compared to the vehicle-control cells. The data were expressed as mean±SD; n=3. *** indicates a significant difference at the level of p<0.001, compared to vehicle-control cells. (One-way ANOVA with Dunnett's multiple comparisons test).
The cell migration ability was measured by wound healing assay. Plate 5×10^6 human oral cancer SAS cells or OECM-1 cells per 6-cm dish in 2 ml of culture medium and were grown overnight at 37° C. in a 5% CO2 incubator until the cells reached 100% confluence forming a monolayer. We used a sterile 200-μl pipette tip to create a scratched clear zone on the culture dish, and the wounds photographed by a phase contrast microscope as the baseline. […] The data were expressed as mean±SD; n=3. *** indicates a significant difference at the level of p<0.001, compared to vehicle-control cells. […]

[2] = system: human oral cancer cells SAS; assay: Viability of human oral cancer SAS cells, Trypan blue exclusion; details: 5˜20 μg/ml, 24 h
Method: Human oral cancer cell line SAS cells (FIG. 1A) or OECM-1 cells (FIG. 1B) were incubated for 24 h with ginsenoside M1 (5˜20 μg/ml), ginsenoside Rh2 (5˜20 μg/ml) or vehicle (0.1% DMSO). The live cell numbers were counted by Trypan blue exclusion method. The data were expressed as mean±SD; n=3. *, ** and *** indicate a significant difference at the level of p<0.05, p<0.01 and p<0.001, respectively, compared to vehicle-control cells. (One-way ANOVA with Dunnett's multiple comparisons test).
Plate 5×10^5 human oral cancer cells SAS per 6-cm dish in 2 ml of culture medium and were grown overnight at 37° C. in a 5% CO2 incubator. The cells were incubated for 24 h with ginsenoside M1 (5˜20 μg/ml), ginsenoside Rh2 (5˜20 μg/ml) or vehicle. Each group contains a final DMSO concentration of 0.1%. Thereafter, the cell numbers were counted by Trypan blue exclusion method. […] The data were expressed as mean±SD; n=3. *, ** and *** indicate a significant difference at the level of p<0.05, p<0.01 and p<0.001, respectively, compared to vehicle-control cells. (One-way ANOVA with Dunnett's multiple comparisons test).

[3] = system: human oral cancer cells OECM-1; assay: Apoptotic DNA breaks, TUNEL assay by flow cytometry; details: 24 h
Method: (§1) Human oral cancer cell line OECM-1 cells were incubated for 24 h with ginsenoside M1 (10˜20 μg/ml), 50 μM cistaplatin (CDDP) or vehicle (0.1% DMSO). (FIG. 3A) The apoptotic DNA breaks was assayed by terminal deoxynucleotidyl transferase dUTP nick end labeling (TUNEL) assay using flow cytometry. (FIG. 3B) The cell cycle distribution was determined by PI staining using flow cytometry. (FIG. 3C) The apoptosis level was measured by PI/Annexin V double staining assay using flow cytometry. (FIG. 3D) The activation levels of caspase-9 and caspase-3 were measured by detecting the degradation of pro-caspase-9 and pro-caspase-3 using Western blotting. […] (One-way ANOVA with Dunnett's multiple comparisons test).
(§2) To gain further insight into the mode of action of ginsenoside M1, three assays targeting hallmarks of apoptosis, namely (1) the apoptotic DNA breaks assayed by terminal deoxynucleotidyl transferase dUTP nick end labeling (TUNEL) assay, (2) the cell cycle assayed by flow cytometry after propidium iodide (PI)-staining nuclei, (3) the PI/Annexin V double staining assay, and (4) caspase activation were performed. Plate 1×10^6 human oral cancer cells OECM-1 per 6-cm dish in 2 ml of culture medium and were grown overnight at 37° C. in a 5% CO2 incubator. The cells were incubated for 24 h with ginsenoside M1 (10˜20 μg/ml), 50 μM cistaplatin (CDDP) or vehicle. Each group contains a final DMSO concentration of 0.1%. Thereafter, three assays were performed. […] The cells in sub-G1 phase increased after treatment with ginsenoside M1 and CDDP. (FIG. 3B). […] The data were expressed as mean±SD; n=3. ** and *** indicate a significant difference at the level of p<0.01 and p<0.001, respectively, compared to vehicle-control cells. (One-way ANOVA with Dunnett's multiple comparisons test).

[4] = system: human oral cancer cells OECM-1; assay: Colony formation of OECM-1 cells; details: 5˜20 μg/ml, 10 days
Method: FIGS. 4A-4B show ginsenoside M1 reduced the colony formation ability of human oral cancer cells. Human oral cancer cell line SAS cells (FIG. 4A) or OECM-1 cells (FIG. 4B) were incubated for 10 days with ginsenoside M1 (5˜20 μg/ml) or vehicle (0.1% DMSO). The cells were fixed in 4% ice-cold paraformaldehyde and stained with 0.1% crystal violet, and the colonies were counted. The data were expressed as mean±SD; n=4. * and *** indicate a significant difference at the level of p<0.05 and p<0.001, respectively, compared to vehicle-control cells. (One-way ANOVA with Dunnett's multiple comparisons test).
Plate 150 human oral cancer cells SAS or OECM-1 per 6-cm dish in 3 ml of culture medium and were grown overnight at 37° C. in a 5% CO2 incubator. The cells were incubated for 10 days with ginsenoside M1 (5˜20 μg/ml) or vehicle. The cells were changed for fresh medium containing the same concentration of ginsenoside M1 at day 5. The cells were fixed in 4% ice-cold paraformaldehyde for 15 min at […], and stained with 0.1% crystal violet 10 min at room temperature. […] The data were expressed as mean±SD; n=4. * and *** indicate a significant difference at the level of p<0.05 and p<0.001, respectively, compared to vehicle-control cells. (One-way ANOVA with Dunnett's multiple comparisons test).

[5] = system: human oral cancer cells OECM-1; assay: PI/Annexin V double staining assay by flow cytometry; details: 24 h
Method: as §1, §2

[6] = system: human oral cancer SAS cells; assay: Caspase-9 and caspase-3 activation, degradation of pro-caspases by Western blotting; details: 10˜20 μg/ml, 24 h
[7] = system: human oral cancer cells OECM-1; assay: Cell cycle distribution, PI staining by flow cytometry; details: 10˜20 μg/ml, 24 h
Method: as §1, §2

## CC(C)=CCC[C@](C)(O[C@@H]1OC(CO)[C@@H](O)[C@@H](O)C1O)[C@H]1CC[C@]2(C)C1[C@H](O)CC1[C@@]3(C)CC[C@H](O)C(C)(C)C3CC[C@]12C (stereo partly drawn) [ginsenoside M1, 20-O-β-D-glucopyranosyl-20(S)-protopanaxadiol]
[1]; 5 μg/ml
  migration ability of SAS cells: significantly inhibited
[1]; 10 μg/ml
  migration ability of SAS cells: significantly inhibited
[2]
  cell numbers of human oral cancer SAS cells: dose-dependently inhibited
[3]; 10 μg/ml
  apoptotic DNA breaks in OECM-1 cells: not 10 μg/ml ginsenoside M1 significantly induced
[3]; 20 μg/ml
  apoptotic DNA breaks in OECM-1 cells: significantly induced
[4]
  colony formation ability of OECM-1 cells: dose-dependently inhibited
[5]; 10 μg/ml
  percentage of OECM-1 cells with PI/Annexin V double positive staining: not 10 μg/ml ginsenoside M1 significantly increased
[5]; 20 μg/ml
  percentage of OECM-1 cells with PI/Annexin V double positive staining: significantly increased
[6]
  precursor of caspase-3 (pro-caspase-3) level: decrease of the precursors of caspase-3 and caspase-9 in a dose-dependent manner
  precursor of caspase-9 (pro-caspase-9) level: decrease of the precursors of caspase-3 and caspase-9 in a dose-dependent manner
[7]
  cells in sub-G1 phase: increased
[7]; vs control cells
  cells in G1 phase: increased in a concentration-dependent manner
  percentage of cells in S and G2/M phase: decreasing
